Blank lines part the entries; values can stand above or below the compound they belong to.
Experiments:
[1] = clinically marketed as Forteo; cited from earlier work
mice = experiment: In vivo glucose tolerance test (GTT); set-up: species or system mouse; conditions: male B6 mice, 16 h fast, 10 nmol/kg IP peptide, then 2 g/kg IP glucose; blood glucose 0-120 min; n = 8; one-way ANOVA, Dunnett's post-test
Protocol: Given the promising activation and stability data, we next tested our peptides in vivo using a standard glucose tolerance test (GTT). More specifically, following a 16h fast, mice were injected intraperitoneally (IP) with 10 nmol/kg peptide followed by 2 g/kg of glucose.
In Vivo GTT Test: Male B6 mice at 10−12 weeks of age were housed (8 mice/cage) at a constant RT of 24 °C on a normal day-light cycle and provided a standard diet ad libitum. After 1 week of acclimatization, B6 mice (n = 8 per treatment arm) were fasted for 16 h overnight, and the following morning baseline blood glucose levels were measured (OneTouch), followed by intraperitoneal (IP) injection of vehicle (saline) or the indicated peptide (10 nmol/kg). Thirty minutes later, the mice were treated with a bolus IP injection of glucose (2 g/kg, 20% aqueous solution), followed by serial blood glucose monitoring at 0, 15, 30, 60, and 120 min. Samples for the measurement of blood glucose were obtained from the saphenous vein and collected into heparinized capillary tubes. All animal experiments were approved by and performed in accordance with the guidelines and regulations set forth by the Institutional Animal Care and Use Committee of the Dana-Farber Cancer Institute.

[2] = Solubility of stock solution for CD spectroscopy; assay type: physicochemical; conditions: 5 mM stock in 10% acetonitrile
[3] = Human serum stability assay (RP-HPLC); conditions: 50% (v/v) human serum, 50 μM peptide, 37 °C, up to 48 h, n = 3
Protocol: Human Serum Stability Assay: Stock solutions of the peptides (10 mM in DMSO) and reconstituted normal human serum (Thermo Scientific) were pre-equilibrated to 37 °C for 15 minutes in separate tubes. For each replicate, peptides and serum were combined to a final concentration of 50 μM and 50% (v/v) respectively, final volume of 150 μL. The reaction tubes were then incubated at 37 °C with 300 rpm shaking in an Eppendorf ThermoMixer. At each time point, 20 μL of the reaction was taken from each replicate and diluted with four-fold excess of cold acetone. The serum proteins were allowed to precipitate for 15 minutes at -20 °C and were removed by centrifugation at 14,000 g, 4 °C for 10 minutes. The supernatant was transferred to a new tube, diluted with the same volume of water, and were stored at -20 °C until HPLC analysis. Chromatographic separations were performed on a C18 reversed phase analytical column (Higgins Analytical, 150x4.6 mm, 5 μm pore size) using a 30-50% B linear gradient over 30 minutes. Solvent A consisted of 0.1% (v/v) TFA in water, and solvent B contained 90% acetonitrile, 0.1% TFA in water.

Compound: PTH(1–34): clinically marketed by Eli Lilly as Forteo
half-life in the blood [1]: ~ 5 minutes

Compound: CCCCCCCCCCCCCCCCCCOCCOCCOCCOCCOCCC(=O)N[C@@H](CO)C(=O)NCCCC[C@H](NC(=O)[C@H](C)NC(=O)[C@H](C)NC(=O)[C@H](CCC(N)=O)NC(=O)CNC(=O)[C@H](CCC(=O)O)NC(=O)[C@H](CC(C)C)NC(=O)[C@H](Cc1ccc(O)cc1)NC(=O)[C@H](CO)NC(=O)[C@H](CO)NC(=O)[C@@H](NC(=O)[C@H](CC(=O)O)NC(=O)[C@H](CO)NC(=O)[C@@H](NC(=O)[C@H](Cc1ccccc1)NC(=O)[C@@H](NC(=O)CNC(=O)[C@H](CCC(=O)O)NC(=O)C(C)(C)NC(=O)[C@@H](N)Cc1c[nH]cn1)[C@@H](C)O)[C@@H](C)O)C(C)C)C(=O)N[C@@H](CCC(=O)O)C(=O)N[C@@H](Cc1ccccc1)C(=O)N[C@H](C(=O)N[C@@H](C)C(=O)N[C@@H](Cc1c[nH]c2ccccc12)C(=O)N[C@@H](CC(C)C)C(=O)N[C@H](C(=O)N[C@@H](CCCCN)C(=O)NCC(=O)N[C@@H](CCCNC(=N)N)C(=O)NCC(=O)O)C(C)C)[C@@H](C)CC [G1]
glycemic control in acute GTT (blood glucose AUC) compared to unmodified GLP-1 (mice): statistically significant glycemic control

solubility as stock [2]: not soluble
stability in human serum (in words) [3]: almost no sign of degradation up to 48 h
Compound: CC[C@H](C)[C@H](NC(=O)[C@H](Cc1ccccc1)NC(=O)[C@H](CCC(=O)O)NC(=O)[C@H](CCCCNC(=O)COCCOCCNC(=O)COCCOCCNC(=O)CC[C@H](NC(=O)CCCCCCCCCCCCCCCCC(=O)O)C(=O)O)NC(=O)[C@H](C)NC(=O)[C@H](C)NC(=O)[C@H](CCC(N)=O)NC(=O)CNC(=O)[C@H](CCC(=O)O)NC(=O)[C@H](CC(C)C)NC(=O)[C@H](Cc1ccc(O)cc1)NC(=O)[C@H](CO)NC(=O)[C@H](CO)NC(=O)[C@@H](NC(=O)[C@H](CC(=O)O)NC(=O)[C@H](CO)NC(=O)[C@@H](NC(=O)[C@H](Cc1ccccc1)NC(=O)[C@@H](NC(=O)CNC(=O)[C@H](CCC(=O)O)NC(=O)C(C)(C)NC(=O)[C@@H](N)Cc1cnc[nH]1)[C@@H](C)O)[C@@H](C)O)C(C)C)C(=O)N[C@@H](C)C(=O)N[C@@H](Cc1c[nH]c2ccccc12)C(=O)N[C@@H](CC(C)C)C(=O)N[C@H](C(=O)N[C@@H](CCCNC(=N)N)C(=O)NCC(=O)N[C@@H](CCCNC(=N)N)C(=O)NCC(=O)O)C(C)C [Semaglutide]

Source: PMC9173702 (ACS chemical biology, 2022)
